Measurements taken from patent US20110281852A1 (priority 2010, published 2011).

Key:
GATA-3 [1] = experiment: Immunoblot, GATA-3 protein in HWP; assay type: cell-based, human; conditions: day 15
Description: (§1) Immunoblot Analysis: Protein expression of GATA-2, GATA-3, PPARγ and C/EBPα were assessed by Western Blot. Total proteins were isolated from HWP treated with compounds or vehicles on day 15. The cells were washed twice with PBS, lysed in a lysis buffer containing HEPES-Tx-PI buffer: […] HEPES, 5 mM EDTA, 350 mM Sucrose, 1 μg/ml leupeptin, 1 μg/ml pepstatin, 1% Triton-X, 1 mM PMSF), processed with a 25G needle and centrifuged at 10,000 rpm for 5 min. Protein concentration was determined using the Micro BCA Protein Assay Kit (Fisher Scientific, Pittsburgh, Pa., USA) according to the manufacturers instructions. 20 μg proteins were loaded and separated by electrophoresis using the BioRad Electrophoretic System (60 V for 1 hour followed by 90 V for 5 hours). The proteins were then transferred to nitrocellulose membranes at 35 V overnight. The membrane was blocked for 1 hour at room temperature in 5% nonfat milk in Tris-buffered saline (TBS), then washed with Tween-20-TBS (TTBS, 0.1% Tween-20) three times (15 min, 5 min, 5 min), followed by incubation with primary antibodies human GATA-2, GATA-3, PPARγ, C/EBPα and β-actin (dilution 1:200) (all antibodies were purchased from Santa Cruz Biotechnology, Santa Cruz, Calif., USA) at room temperature for 2 hours. The membrane was rinsed three times (15 min, 5 min, 5 min), then incubated at room temperature for 1 hour with Horseradish peroxidase-conjugated second antibody (1:10,000). The membrane was then incubated in ECL reagent (GE Healthcare, Piscataway, N.J., USA) for 1 minute. Protein was visualized using the UVP image analysis system (UVP, Upland, Calif., USA).

[2] = system: human white preadipocytes (HWP); experiment: Oil-Red-O staining and quantification, HWP differentiation; assay type: cell-based; conditions: 15 days post differentiation induction
Description: Cell culture: Cell culture was carried out following the protocol provided by Promocell Company. […] Differentiation was induced with preadipocyte Differentiation Medium (DM) for 3 days (days 3), where upon the medium was changed to adipocyte Nutrition Medium (NM) and cultured for 12 days (days 15) (HWP cell line and media were purchased from Promocell, Heidelberg, Germany).
Oil-Red-O Staining and quantification: Oil-Red-O Staining and quantitative Oil-Red-O Staining were performed as previously reported. Briefly, medium was removed and cells were washed with PBS twice, fixed with 3.7% formalin at room temperature for 30 min, then rinsed with water, added 60% 2-propanol and incubated for 5 minutes, then moved out 2-propanol and stained cells with Oil-Red-O solution (Oil-Red-O store solution (3 mg/ml in pure 2-propanol): water=3:2) at room temperature for 10 min. Then the Oil-Red-O solution was removed and cells were washed 3 times with water. Images were obtained using an Olympus IX70 inverted microscope equipped for phase-contrast microscopy (Olympus, Tokyo, Japan). After staining, the cells were washed twice with 70% ethanol to remove excess stain. Stained oil droplets in the cells were dissolved in 2-propanol containing 4% Nonidet-P40 (Fisher Scientific, Pittsburgh, Pa., USA) and OD values were measured at an absorbance of 490 nm.

[3] = system: human white preadipocytes (HWP); experiment: MTT assay, viability of HWP during differentiation; assay type: cell-based; conditions: 15 days of differentiation
Description: Cell culture: Cell culture was carried out following the protocol provided by Promocell Company. Briefly, human white preadipocytes (HWP's […]) were cultured at 37° C. in a humidified 5% CO2 atmosphere and grown in a preadipocyte Growth medium (GM) with 100 units/ml penicillin and 100 μg/ml streptomycin until confluence (day 0). Differentiation was induced with preadipocyte Differentiation Medium (DM) for 3 days (days 3), where upon the medium was changed to adipocyte Nutrition Medium (NM) and cultured for 12 days (days 15) (HWP cell line and media were purchased from Promocell, Heidelberg, Germany).

PPARγ [4] = experiment: Real-Time RT-PCR, PPARγ mRNA in HWP; assay type: cell-based, human; conditions: day 15
Source text: (§2) Quantitative Real-Time RT-PCR: Real-Time reverse transcriptase polymerase chain reaction (RT-PCR) analysis was used to measure mRNA expression of human genes PPARγ, C/EBPα, GATA-2 and GATA-3 under the control of β-actin. Briefly, total RNA was isolated from HWP following treatment at days 15 with Trizol reagent (Invitrogen, Carlsbad, Calif., USA) according to the manufacturer's instruction. RNA was quantified using absorption of light at 260 and 280 nm, and sample integrity was checked by 1.5% agarose gel electrophoresis. 0.8 μg of total RNA from each sample was used for reverse transcription reaction using the TaqMan Reverse Transcription Reagents (Applied Biosystems, Foster City, Calif., USA) following the Manufacturer's instructions. PCR was done using the SYBR green Master Mix (Applied Biosystems, Foster City, Calif., USA) following the manufacturer's instructions. The temperature cycling conditions of amplification were as follows: an initial step of denaturation at 95° C. for 10 min, 40 cycles of denaturation at 95° C. for 30 s, annealing at 55° C. for 30 s, and elongation at 72° C. for 30 s. Real-Time RT-PCR was performed using Mx3000P Real-Time Thermocyclers (Statagene, La Jolla, Calif., USA). The relative mRNA levels of these genes were calculated by Pfaffl's mathematical method (Pfaffl, M W, Nucleic Acid Res (2001) 29:e45) and normalized with control-treated groups.

GATA-2 = experiment: Real-Time RT-PCR, GATA-2 mRNA in HWP; assay type: cell-based, human; conditions: day 15
Source text: as §2

PPARγ [5] = experiment: Immunoblot, PPARγ protein in HWP; assay type: cell-based, human; conditions: day 15
Description: as §1, with “The membrane was rinsed three times (15 min, 5 min, 5 min), then incubated at room temperature for 1 hour with Horseradish peroxidase-conjugated second antibody (1:10,000). The membrane was then incubated in ECL reagent (GE Healthcare, Piscataway, N.J., USA) for 1 minute. Protein was visualized using the UVP image analysis system (UVP, Upland, Calif., USA).” left out

GATA-3 [6] = experiment: Real-Time RT-PCR, GATA-3 mRNA in HWP; assay type: cell-based, human; conditions: day 15
Source text: as §2

C/EBPα [7] = experiment: Real-Time RT-PCR, C/EBPα mRNA in HWP; assay type: cell-based, human; conditions: day 15
Source text: as §2

C/EBPα [8] = experiment: Immunoblot, C/EBPα protein in HWP; assay type: cell-based, human; conditions: day 15
Description: as §1, with “The membrane was rinsed three times (15 min, 5 min, 5 min), then incubated at room temperature for 1 hour with Horseradish peroxidase-conjugated second antibody (1:10,000). The membrane was then incubated in ECL reagent (GE Healthcare, Piscataway, N.J., USA) for 1 minute. Protein was visualized using the UVP image analysis system (UVP, Upland, Calif., USA).” left out

Compound	GATA-3 protein expression vs controls (GATA-3 [1]; 1 μM)	GATA-3 protein expression vs controls (GATA-3 [1]; 2 μM)	GATA-3 protein expression vs controls (GATA-3 [1]; 4 μM)	reduction in lipid content ([2]; 1 μM)	reduction in lipid content ([2]; 2 μM)	reduction in lipid content ([2]; 4 μM)	reduction in lipid content ([2]; 8 μM)	decrease of cell viability vs control ([3]; 1 μM)	decrease of cell viability vs control ([3]; 2 μM)	decrease of cell viability vs control ([3]; 4 μM)	decrease of cell viability vs control ([3]; 8 μM)	change in PPARγ mRNA expression (PPARγ [4])	GATA-2 mRNA expression vs vehicle (control) group (GATA-2; 1 μM)	GATA-2 mRNA expression vs vehicle (control) group (GATA-2; 2 μM)	GATA-2 mRNA expression vs vehicle (control) group (GATA-2; 4 μM)	PPARγ protein expression, drug-treated vs control cells (PPARγ [5])	GATA-3 mRNA expression vs control group (GATA-3 [6]; 1 μM)	GATA-3 mRNA expression vs control group (GATA-3 [6]; 2 μM)	GATA-3 mRNA expression vs control group (GATA-3 [6]; 4 μM)	change in C/EBPα mRNA expression (C/EBPα [7])	also measured
COc1ccc2cc3[n+](cc2c1OC)CCc1cc2c(cc1-3)OCO2.[Cl-] [berberine, Berberine (Chloride Form)]	5.63 fold	5.65 fold	6.43 fold	31.9%	42.9%	60.6%	66.4%	−3.1%	1.1%	−0.0%	1.3%	no significant changes	3.87 fold	4.1 fold	3.8 fold	no significant difference	2.77 fold	2.79 fold	4.43 fold	no significant changes	GATA-3 protein expression vs controls (GATA-3 [1]; 8 μM): 5.37 fold; GATA-2 mRNA expression vs vehicle (control) group (GATA-2; 8 μM): 5.33 fold; GATA-3 mRNA expression vs control group (GATA-3 [6]; 8 μM): 6.77 fold; C/EBPα protein expression, drug-treated vs control cells (C/EBPα [8]): no significant difference
evodiamine	4.21 fold	4.95 fold	6.57 fold	27.8%	46.7%	84.6%	112.6%	17.7%	30.5%	34.2%	53.6%	no significant changes	1.36 fold	1.5 fold	2.08 fold	no significant difference	2.61 fold	2.7 fold	2.79 fold	no significant changes	reduction in lipid content ([2]; 0.125 μM): 7.5%; reduction in lipid content ([2]; 0.25 μM): 13.8%; reduction in lipid content ([2]; 0.5 μM): 19%; decrease of cell viability vs control ([3]; 0.25 μM): 14.1%; decrease of cell viability vs control ([3]; 0.5 μM): 15%; C/EBPα protein expression, drug-treated vs control cells (C/EBPα [8]): no significant difference
